Laboratory results taken from patent US20080004311A1, “HISTONE DEACETYLASE INHIBITORS FOR TREATING DEGENERATIVE DISEASES OF THE EYE” (ALCON, INC., priority 2002, published 2008).

Tested on: cultured adult rat retinal ganglion cells (RGC)
Assay: Survival of cultured adult rat retinal ganglion cells (RGC), Thy-1-positive healthy cell count
Type: cell-based
Conditions: Thy-1-positive healthy cells counted; for RGC survival against trophic factor withdrawal (TFW)-induced toxicity: bFGF, BDNF and CNTF removed from medium, cultured with compound for 3 days; for RGC survival against TNFα-induced toxicity / RGC survival against glutamate-induced toxicity: pre-treated 30 minutes; for RGC survival against TNFα-induced toxicity: then 10 ng/mL TNFα for 3 days; for RGC survival against glutamate-induced toxicity: then 100 μM glutamate for 3 days
Method: Culture of rat retinal ganglion cells (RGC) was performed as described in Pang et al. (Pang et al., 2007, BMC Neuroscience 8:11). Adult Sprague-Dawley rats were briefly euthanized by CO2 asphyxiation. Their eyes were enucleated and placed in the Neurobasal medium. The retina from each eye was detached and isolated. Retinal cells were dissociated by combining up to 20 retinas with 5 mL of papain solution, containing 10 mg papain, 2 mg DL-cysteine, and 2 mg bovine serum albumin in 5 ml of Neurobasal medium, for 25 min at 37° C., then washed 3 times with 5 mL RGC medium (Neurobasal medium with various nutrient supplements)+1% fetal calf serum. Retinal pieces were triturated by passing through a fire-polished disposable pipette several times until cells were dispersed. Cell suspension was placed onto of the poly-D-lysine- and laminin-coated 8-well chambered culture slide. The cells were then cultured in 95% air/5% CO2 at 37° C.
For glutamate-induced toxicity studies, cells were pre-treated with vehicle (cell media plus 0.1% DMSO) or the indicated compounds for 30 minutes, followed by 100 μM glutamate for 3 days. For TNFα-induced toxicity studies, cells were pre-treated with vehicle or the indicated compounds for 30 minutes, followed by 10 ng/mL TNFα for 3 days. For s trophic factor withdrawal (TFW) studies, three trophic factors, basic fibroblast growth factor, brain-derived neurotrophic factor, and ciliary neurotrophic factor, were removed from the culture medium. Cells were cultured in this medium with the indicated compounds for 3 days.
At the end of the incubation period, the cells were fixed and labeled for Thy-1, a RGC marker, by immunocytochemistry. Cell survival was quantified by manually counting Thy-1-positive healthy cells in each well. As shown by the data in FIGS. 1, 2, and 3, APHA-8 (Sigma, St. Louis, Mo.) and Scriptaid™ (Sigma, St. Louis, Mo.) were protective against glutamate-, tumor necrosis factor-alpha (TNFα)-, and trophic factor withdrawal (TFW)-induced toxicity.

Cn1cc(C(=O)Cc2ccccc2)cc1C=CC(=O)NO [APHA-8, 3-(1-methyl-4-phenlyacetyl-1H-2-pyrrolyl)-N-hydroxy-2-propenamide]
protective: RGC survival against trophic factor withdrawal (TFW)-induced toxicity | RGC survival against TNFα-induced toxicity | RGC survival against glutamate-induced toxicity

O=C(CCCCCN1C(=O)c2cccc3cccc(c23)C1=O)NO [Scriptaid™, 6-(1,3-Dioxo-1H, 3H-benzo[de]isoquinolin-2-yl)-hexanoic acid hydroxyamide]
protective: RGC survival against trophic factor withdrawal (TFW)-induced toxicity | RGC survival against TNFα-induced toxicity | RGC survival against glutamate-induced toxicity
